Key:
tumor = conditions: by reducing PC coverage; cited from earlier work
[1] = system: human microvascular pericytes (PC); assay: Gelatinase zymography of active MMP2 and MMP9 from TGF-β1-activated PC with or without nintedanib; format: cell-based
[2] = system: human microvascular pericytes (PC); assay: Short term (7 day) myofibroblast differentiation of PC on low, medium, high stiffness hydrogels with TGF-β1 or bleomycin activation; format: cell-based
Method: Human microvascular PC were isolated from a readily available and nearly inexhaustible source, human placental tissue, by microvascular segment explant outgrowth (Sava et al., Microcirculation, 2015, 22:54-67; Ayres-Sander et al., PLoS One, 2013, 8:e60025; Lauridsen et al., FASEB, 2014, 28:1166-1180; Maier et al., Microcirculation, 2010, 17:367-380). Human placental tissue was segmented, digested with collagenase, and the resulting cells were cultured in M199 (Gibco, Grand Island, NY, USA) medium supplemented with 20% FBS (Hyclone Laboratories, Logan, Utah, USA), and 1% penicillin-streptomycin (Gibco). Isolated pericytes were screened by flow cytometry against NG2 (H-300, Santa Cruz Biotechnology), CD90 (K-15, Santa Cruz), CD146 (P1H12, Biolegend, San Diego, Calif., USA), PDGFR-β (18A2, Santa Cruz), α-SMA (1A4, Santa Cruz), SMMHC (N-16, Santa Cruz), CD31 (C20, Santa Cruz), CD34 (581, Sigma) and CD45 (MEM-28, Sigma). As negative control, PC were incubated with isotype matched IgG. Samples were run on a Stratedigm S1000EXi Flow Cytometer (Stratedigm, San Jose, Calif. USA) and analyzed with FlowJo software (Tree Star, Ashland, Oreg., USA).
Polyacrylamide hydrogels were prepared as previously described (Tse and Engler, Current protocols in cell biology, editorial board, Juan S. Bonifacino et al, 2010, Chapter 10, Unit 10-16). Briefly, amino-silanated coverslips were prepared by treatment with 0.1M NaOH, followed by 3-aminopropyltriethoxysilane (Sigma), and crosslinked with glutaraldehyde. Chloro-silanated coverslips were treated with dichlorodimethylsilane (Sigma). Polyacrylamide solutions of varying stiffness were prepared by altering the concentrations of acrylamide (Bio-Rad, Hercules, Calif., USA) and bis-acrylamide (Bio-Rad). Ammonium persulfate (Sigma) and tetramethylethylenediamine (Bio-Rad) were used as cross-linkers. The solution was placed between the chloro-silanated and amino-silanated coverslips and cross-linked under ambient lighting for 30 minutes, after which the amino-silanated slide, containing the hydrogel, was hydrated in PBS. The ECM components were chemically conjugated to the polyacrylamide hydrogel using the naturally occurring amine residues on the proteins. Sulfa-SANPAH (Thermo Fisher, Grand Island, N.Y., USA) was added in 50 mM 4-(2-hydroxyethyl)-1-piperazineethanesulfonic acid buffer (Sigma) and the hydrogels were placed under UV light (365 nm, 10 mW/cm^2) for 15 minutes, and incubated overnight with either 0.5 mg/mL solubilized healthy or IPF human lung ECM, or isolated ECM proteins (0.1 mg/mL human plasma fibronectin (Millipore, Billerica, Mass., USA) and 0.1 mg/mL collagen I (Sigma). Validation of protein conjugation was performed by tagging ECM with NHS-Fluorescein (5/6-carboxyfluorescein succinimidyl ester), dialyzing overnight, and rinsed extensively (Syed et al., J Vis, Exp, 2015, 97).
For short term (7 day) differentiation studies, PC (passage 3-7) were seeded on healthy or IPF lung tissue slices, polyacrylamide hydrogels, or 25 mm glass coverslips (VWR) at 100×10^3 cells per sample and activated with control media (non-activated), or 1 ng/mL TGF-β1 (PeproTech, Rocky Hill, N.J., USA) for 7 days (18, 19). For bleomycin activation, the cells were activated with 1 μg/mL bleomycin sulfate (Cayman Chemical, Ann Arbor, Mich.) for 1 day and the media was replaced with non-activated media for the remaining 6 days (Sava et al., Microcirculation, 2015, 22:54-67; Sterling et al., J Bio Chem, 1983, 258:14438-14444). TGF-β1 and bleomycin concentrations were based on reports consistent with activation of fibroblasts (Sava et al., Microcirculation, 2015, 22:54-67; Maroni and Davis, Bio Reprod, 2012, 87:127). Treatment with CCG-1423 (Sigma) was performed at day 0 for the full 7 days, and labeled as early treatment, or at day 7 and performed for 7 days, and labeled as late treatment. […]

[3] = 7 days, low, medium, high stiffness hydrogels with fibronectin and collagen I, TGF-β1 1 ng/mL 7 days or bleomycin 1 μg/mL 1 day, flow cytometry

Question: Which tumor growth (tumor) does the source give for `COC(=O)c1ccc2c(c1)NC(=O)/C2=C(\Nc1ccc(N(C)C(=O)CN2CCN(C)CC2)cc1)c1ccccc1` [nintedanib] here?
Answer: inhibit tumor growth

Question: What about the “generation of active MMP9” value ([1]; P<0.01) of the same molecule?
Answer: enhanced

Question: And the “generation of active MMP2” value ([1]; P<0.05)?
Answer: enhanced

Question: With “TGF-β1: transforming growth factor (TGF)-β1, fibrotic activator, used at 1 ng/mL” as the molecule, how does the “vimentin expression compared to non-activated PC on substrates of the same stiffness” value [2, 3] read?
Answer: did not induce a significant increase

Question: And the “α-SMA expression compared to non-activated PC on substrates of the same stiffness” value [2, 3]?
Answer: did not induce a significant increase

Question: What about the “proportion of α-SMA-expressing PC” value ([2]; soft or stiff hydrogels, up to 7 days, presence or absence of TGF-β1) of the same molecule?
Answer: failed to affect
